Test [1] concerns Highly purified T cells. Nature of the test: T cell proliferation induced by anti-CD28 mAb + PMA (BrdU incorporation). The test is classed as cell-based, Human. The conditions noted are these: Homo sapiens, T-cell. From the text:
(§1) Various models may be used for testing an immunosuppressive effect. In vivo, for example, different transplantation models are available. They are strongly influenced by different immunogenicities, depending on the donor and recipient species used and depending on the nature of the transplanted organ. The survival time of transplanted organs can thus be used to measure the suppression of the immune response. In vitro, there exist also various models. The most used are lymphocyte activation tests. Usually activation is measured via lymphocyte proliferation. Inhibition of proliferation thus always means immunosuppression under the experimental conditions applied. There exist different stimuli for lymphocyte activation: • coculture of lymphocytes of […] (MLR = mixed lymphocyte reaction): lymphocytes expressing different minor and major antigens of the HLA-DR type (= alloantigens) activate each other non-specifically. • CD3 assay: here there is an activation of the T-lymphocytes via an exogenously added antibody (OKT3). This antibody reacts against the CD3 molecule located on the lymphocyte membrane. This molecule has a costimulatory function. […] This molecule is also located on the lymphocyte membrane, and delivers strong costimulatory signals.
(§2) T cells were purified by removing non-T cells. Briefly,monocytes were removed by cold agglutination. The resulting lymphoid cells were further purified by a cell enrichment immunocolumn [Cellect Human T (Biotex, Edmonton, Alberta, Canada)] by a process of negative selection.
(§3) Measurements of T cell proliferations induced by anti-CD3 mAb + PMA or anti-CD28 mAb + PMA
(§4) Highly purified T cells (10^6/ml) were stimulated by immobilized anti-CD3 àr anti-CD28 mAb in the presence of PMA. Anti-CD3 mAb (CLB-CD3; CLB, Amsterdam, The Netherlands) were fixed on the 96-microwell plates by incubating the wells with 50 µl of mAb solution (1/800 dilution in culture medium). Anti-CD28 mAb (CLB-CD28; CLB, Amsterdam, The Netherlands) 50 µl (1/650 dilution in culture medium) was added directly to the wells. Further, 20 µl PMA (Sigma, St. Louis, MO, USA) solution (final concentration: 0.5 ng/ml) was added. Subsequently, 20 µl of immunosuppressants were added by serial dilution in triplicate wells. Finally 100 µl of the T cell suspension (10^6/ml) was added. After 48-hour incubation at 37EC in 5% CO2 20 Φl BrdU (100 ΦM solution) (Cell Proliferation Elisa, Boehringer-Mannheim Belgium) was added to each well. After a further overnight incubation the T cell proliferation was measured using a colorimetric immunoassay for qualification of cell proliferation based on measurements of the incorporation of BrdU during DNAsynthesis. The optical density (OD) was measured by a Behring EL311 plate reader at 450 nm (reference wavelength: 690 nm). The percent suppression of proliferation by drugs was counted using the formula: Per cent inhibition =((OD + drugs) - (OD Cult. Med.))/((OD - drugs) - (OD Cult. Med.))x 100 [formula]
A general note: Dividing cells build labelled thymidine or BrdU into new DNA.

Test [2] has as its system Highly purified T cells. Nature of the test: T cell proliferation induced by anti-CD3 mAb + PMA (BrdU incorporation). It is filed as cell-based, Human. The following applies: Homo sapiens, T-cell.
From the text: as §1, §2, §3, §4

The test system of test [3] is Peripheral blood mononuclear cells (PBMC). Nature of the test: Mixed lymphocyte reaction (MLR), [3H]-thymidine incorporation. The conditions noted are these: Homo sapiens. The test is classed as cell-based.
From the text: as §1
Peripheral blood mononuclear cells (PBMC) were isolated from heparinized peripheral blood by density gradient centrifugation over Lymphoprep (Nycomed, Maorstua, Norway). Allogeneic PBMC or EBV-transformed human B cells [RPMI1788 (ATCC name CCL156)] which strongly express B7-1 and B7-2 were used as stimulator cells after irradiation with 30 Gy. MLR was performed in triplicate wells. After 5 days incubation at 37EC, 1 µCi [^3H]-thymidine was added to each cup. After a further 16 hours incubation, cells were harvested and counted in a β-counter.
The percent suppression of proliferation by drugs was counted using the formula Percent inhibition =((cpm + drugs) - cpm Cult. Med)/((cpm - drugs) - cpm Cult. Med.)x 100 [formula]

Where [4] appears, read: Table IV, known pteridine derivatives, IC50 subranges, read-out: aCD28.
[5] abbreviates: Table IV, known pteridine derivatives, IC50 subranges, read-out: aCD3.
Where [6] appears, read: Table IV, known pteridine derivatives, IC50 subranges, read-out: MLR.
The mark [7] stands for this setting: Table II, read-out: IC50 in µM of pteridine derivative aCD28.
[8] abbreviates: untitled structure table, no unit printed there, same values in Table II as IC50 in µM, read-out: aCD28.
Where [9] appears, read: Table II, read-out: IC50 in µM of pteridine derivative ACD3.
[10] abbreviates: untitled structure table, no unit printed there, same values in Table II as IC50 in µM, read-out: aCD3.
The mark [11] stands for this setting: Table II, read-out: IC50 in µM of pteridine derivative MLR.
Where [12] appears, read: untitled structure table, no unit printed there, same values in Table II as IC50 in µM, read-out: MLR.

Read-outs that look alike come from different tables or passages of the source. Bounds are passed on as bounds.

`CC(C)C(=O)NCc1cnc2nc(N)nc(N)c2n1` [CH2 NH CO CH (CH3)2, reference compound]: the IC50 (in the test with Highly purified T cells [1] (setting [4]); with Highly purified T cells [2] (setting [5]); in test [3] (setting [6])) was above 151 µM throughout.
With `CCCOCc1cnc2nc(N)nc(N)c2n1` [CH2 O CH2CH2CH3, reference compound], the IC50 (with Highly purified T cells [1] (setting [4]); in the test on Highly purified T cells [2] (setting [5]); in test [3] (setting [6])) was above 151 µM throughout.
In the case of `COCc1cnc2nc(N)nc(N)c2n1` [CH2 O CH3, reference compound], the IC50 (in the test with Highly purified T cells [1] (setting [4]); with Highly purified T cells [2] (setting [5]); in test [3] (setting [6])) was above 151 µM each time.
Turning to `CSCc1cnc2nc(N)nc(N)c2n1` [CH2 S CH3, reference compound], the IC50 (with Highly purified T cells [1] (setting [4]); in the test with Highly purified T cells [2] (setting [5]); in test [3] (setting [6])) was above 151 µM throughout.
Take `CN(C)Cc1cnc2nc(N)[nH]c(=O)c2n1` [CH2N(CH3)2, reference compound]: the IC50 (in the test with Highly purified T cells [1] (setting [4]); with Highly purified T cells [2] (setting [5]); in test [3] (setting [6])) was above 151 µM throughout.
Consider `CNCc1cnc2nc(N)[nH]c(=O)c2n1` [CH2NHCH3, reference compound], for which the IC50 (in the test with Highly purified T cells [1] (setting [4]); in the test with Highly purified T cells [2] (setting [5]); in test [3] (setting [6])) was above 151 µM throughout.
For the compound `CCOCc1cnc2nc(N)[nH]c(=O)c2n1` [CH2OC2H5, reference compound], the IC50 (in the test with Highly purified T cells [1] (setting [4]); in the test on Highly purified T cells [2] (setting [5]); in test [3] (setting [6])) was above 151 µM each time.
Take `CSCc1cnc2nc(N)[nH]c(=O)c2n1` [CH2S CH3, reference compound]: the IC50 (in the test with Highly purified T cells [1] (setting [4]); with Highly purified T cells [2] (setting [5]); in test [3] (setting [6])) was above 151 µM throughout.
For the compound `CCCCCOc1nc(N)nc2ncc(C=Cc3ccccc3)nc12` [Compound 1, 2-amino-4-pentoxy-6-styrylpteridine], the IC50 with Highly purified T cells [1] (setting [7]) turned out to be 80 µM; in the test with Highly purified T cells [1] (setting [8]) it was 80 µM; in the test on Highly purified T cells [2] (setting [9]) it was 110 µM; with Highly purified T cells [2] (setting [10]), 110 µM; in test [3] (setting [11]), 15 µM; in test [3] (setting [12]) it was 15 µM.
`CCCCCOc1nc(N)nc2ncc(C(Br)C(Br)c3ccccc3)nc12` (centres unmarked) [Compound 2, 2-amino-4-n-pentoxy-6-(1,2-dibromo-2-phenylethyl)pteridine]: the IC50 in the test on Highly purified T cells [1] (setting [7]) worked out at 12 µM; with Highly purified T cells [1] (setting [8]), 12 µM; in the test with Highly purified T cells [2] (setting [9]), 4 µM; in the test with Highly purified T cells [2] (setting [10]), 4 µM; in test [3] (setting [11]), 12 µM; in test [3] (setting [12]), 12 µM.
Consider `COc1nc2nc(N)nc(OC)c2nc1C=Cc1ccccc1` [Compound 3, 2-amino-4-methoxy-6-styryl-7-methoxypteridine], for which the IC50 in the test with Highly purified T cells [1] (setting [7]) was determined as 100 µM; in the test on Highly purified T cells [1] (setting [8]), 100 µM; in the test on Highly purified T cells [2] (setting [9]) it was 160 µM; with Highly purified T cells [2] (setting [10]), 160 µM; in test [3] (setting [11]) it was 25 µM; in test [3] (setting [12]), 25 µM.
Turning to `COc1nc(N)nc2ncc(C(O)C(C)O)nc12` (centres unmarked) [Compound 4, 2-amino-4-methoxy-6-(1,2-dihydroxypropyl)pteridine], the IC50 in the test on Highly purified T cells [1] (setting [7]) is 110 µM; in the test with Highly purified T cells [1] (setting [8]) it was 110 µM; in the test on Highly purified T cells [2] (setting [9]), 140 µM; in the test with Highly purified T cells [2] (setting [10]), 140 µM; in test [3] (setting [11]) it was above 200 µM; in test [3] (setting [12]) it was above 200 µM.
In the case of `Nc1nc(N)c2nc(-c3ccccc3)cnc2n1` [Compound 5, 2,4-diamino-6-phenyl pteridine], the IC50 (in the test on Highly purified T cells [1] (setting [7]); in the test with Highly purified T cells [1] (setting [8]); with Highly purified T cells [2] (setting [9]); in the test on Highly purified T cells [2] (setting [10]); in test [3] (setting [11]); in test [3] (setting [12])) was above 200 µM throughout.
`O=c1[nH]cc(F)c(=O)[nH]1` [Compound 5-FU, 5-Fluoro-uracil, reference compound]: the IC50 in the test with Highly purified T cells [1] (Table III, comparison immunosuppressants, read-out: IC50 aCD28) came out at 17 µM; with Highly purified T cells [2] (Table III, comparison immunosuppressants, read-out: IC50 aCD3) it was 50 µM.
As for `Cc1nc2nc(N)nc(N)c2nc1-c1ccccc1` [Compound 6, 2,4-diamino-6-phenyl-7-methylpteridine], the IC50 (with Highly purified T cells [1] (setting [7]); in the test on Highly purified T cells [1] (setting [8]); with Highly purified T cells [2] (setting [9]); with Highly purified T cells [2] (setting [10]); in test [3] (setting [11]); in test [3] (setting [12])) was above 200 µM throughout.
Take `Cc1ccc(-c2cnc3nc(N)nc(N)c3n2)cc1` [Compound 7, 2,4-diamino-6-(4-tolyl)pteridine]: the IC50 was 25 µM in the test on Highly purified T cells [1] (setting [7]); 25 µM in the test on Highly purified T cells [1] (setting [8]); 110 µM in the test with Highly purified T cells [2] (setting [9]); 110 µM in the test with Highly purified T cells [2] (setting [10]); above 200 µM in test [3] (setting [11]); above 200 µM in test [3] (setting [12]).
On to `COc1ccc(-c2cnc3nc(N)nc(N)c3n2)cc1` [Compound 8, 2,4-diamino-6-(4-methoxyphenyl)pteridine], for which the IC50 was 22 µM in the test with Highly purified T cells [1] (setting [7]); 22 µM in the test on Highly purified T cells [1] (setting [8]); 125 µM with Highly purified T cells [2] (setting [9]); 125 µM with Highly purified T cells [2] (setting [10]); 150 µM in test [3] (setting [11]); above 150 µM in test [3] (setting [12]).
On to `Nc1nc(N)c2nc(-c3ccc(Cl)cc3)cnc2n1` [Compound 9, 2,4-diamino-6-(4-chlorophenyl)pteridine], for which the IC50 came to 110 µM in the test with Highly purified T cells [1] (setting [7]); 110 µM with Highly purified T cells [1] (setting [8]); 110 µM with Highly purified T cells [2] (setting [9]); 110 µM in the test on Highly purified T cells [2] (setting [10]); 125 µM in test [3] (setting [11]); 125 µM in test [3] (setting [12]).
For `Nc1nc(NCCO)nc2ncc(-c3ccccc3)nc12` [Compound 10, 2-hydroxyethylamino-4-amino-6-phenylpteridine], the IC50 (in the test with Highly purified T cells [1] (setting [7]); in the test with Highly purified T cells [1] (setting [8]); with Highly purified T cells [2] (setting [9]); in the test on Highly purified T cells [2] (setting [10]); in test [3] (setting [11]); in test [3] (setting [12])) was 125 µM in each case.
Take `Cc1ccc(-c2cnc3nc(NCCO)nc(N)c3n2)cc1` [Compound 11, 2-hydroxyethylamino-4-amino-6-(4-tolyl)pteridine]: the IC50 in the test on Highly purified T cells [1] (setting [7]) is 160 µM; in the test with Highly purified T cells [1] (setting [8]) it was 160 µM; with Highly purified T cells [2] (setting [9]), 200 µM; in the test on Highly purified T cells [2] (setting [10]), 200 µM; in test [3] (setting [11]), above 200 µM; in test [3] (setting [12]), above 200 µM.
For the compound `COc1ccc(-c2cnc3nc(NCCO)nc(N)c3n2)cc1` [Compound 12, 2-hydroxyethylamino-4-amino-6-(4-methoxyphenyl)pteridine], the IC50 with Highly purified T cells [1] (setting [7]) was 160 µM; with Highly purified T cells [1] (setting [8]), 160 µM; in the test with Highly purified T cells [2] (setting [9]) it was above 200 µM; with Highly purified T cells [2] (setting [10]), above 200 µM; in test [3] (setting [11]), above 200 µM; in test [3] (setting [12]), above 200 µM.
As for `CCCNc1nc(N)nc2ncc(-c3ccc(OC)c(OC)c3)nc12` [Compound 63, 2-amino-4-propylamino-6-(3,4-dimethoxyphenyl)pteridine], the IC50 in test [3] (untitled structure table, IC50 subranges, read-out: MLR) was below 1 µM.
On to `CCOc1nc(N)nc2ncc(-c3ccc(OC)c(OC)c3)nc12` [Compound 66, 2-amino-4-ethoxy-6-(3,4-dimethoxyphenyl)pteridine], for which the IC50 in the test on Highly purified T cells [1] (untitled structure table, IC50 subranges, read-out: aCD28) is below 1 µM; with Highly purified T cells [2] (untitled structure table, IC50 subranges, read-out: aCD3) it was below 1 µM.

The record behind these values is EP1144412B1, “IMMUNOSUPPRESSIVE EFFECTS OF PTERIDINE DERIVATIVES” (4 AZA Bioscience nv, priority 1998, dated 2000).
